Molecular target: GABAA receptor complex (GRC)
Test: [35S]TBPS binding assay (In Vitro Binding Assay 1)
Conditions: rat cortex P2 homogenate; 2 nM [35S]TBPS; 90 min at 25° C.
Description: [^35S]TBPS binding assay. The cortex from male Sprague-Dawley rats (weighing 160-200 g) was removed immediately after decapitation and dissected over ice. A P2 homogenate was prepared for binding assay as previously described (Gee, Mol. Pharmacol. 30: 218-225, 1986.). The tissue was homogenized in 0.32 M sucrose (J. T. Baker Chemical Co., Phillipsburg, N.J., USA) with a Teflon-coated pestle, followed by centrifugation at 1,000×g for 10 min. The supernatant was collected and centrifuged at 9,000×g for 20 min. The resultant P2 pellet was resuspended in ice-cold 50 mM sodium potassium phosphate (J. T. Baker) buffer (pH 7.4) containing 200 mM NaCl (J. T. Baker) and used immediately in binding assays. A 2 nM concentration of [^35S]TBPS (86 Ci/mmol; New England Nuclear, Boston, Mass., USA) was incubated with 100 μl of tissue homogenate (10% w/v) in the presence or absence of 5 μM GABA (Sigma Chem. Co., St. Louis, Mo.) and 5 μl aliquots of test drug dissolved in dimethyl sulfoxide (Sigma Chem. Co.) (≦10 μl of solvent used in all assays). At the concentration (≦1%) used, dimethyl sulfoxide had no effect on specific [^35S]TBPS binding. All assays were brought to a final volume of 1 ml with 50 mM sodium potassium phosphate buffer (pH 7.4) containing 200 mM NaCl. Non-specific binding was defined as binding in the presence of 2 μM TBPS (NEN, Boston, Mass.) and accounted for ˜30% of the total binding. Assays were terminated after a 90-min steady-state incubation at 25° C. by rapid filtration through glass fiber filters (no. 32; Schleicher & Schuell, Keene, N.H.). Filter-bound radioactivity was quantified by liquid scintillation spectrophotometry. The data were evaluated by nonlinear regression (GraphPad, Inc., San Diego, Calif.) to obtain IC50 (concentration at which half-maximal inhibition of radioligand occurs) values.

Row | Structure (SMILES) | IC50 [nM] | Imax (inhibition of [^35S]TBPS binding) [%]
1 | CCCNC(=O)C(=CNc1ccc(C)cc1)C(=O)c1ccccc1C [2-methyl-α-[[(4-methylphenyl)amino]methylene]-β-oxo-N-propyl-benzenepropanamide] | 100 | 100
2 | CCOC(=O)C(=CNc1ccccc1Cl)C(=O)c1ccccc1Cl [ethyl 2-chloro-α-[[(2-chlorophenyl)-amino]methylene]-β-oxobenzenepropionate] | 420 | 100
3 | CCOC(=O)C(=CNc1ccc(C#N)cc1)C(=O)c1ccccc1Cl [ethyl 2-chloro-α-[[(4-cyanophenyl)-amino]methylene]-β-oxobenzenepropionate] | 60 | 100
4 | C#Cc1ccc(NC=C(C(=O)OCC)C(=O)c2ccccc2Cl)cc1 [ethyl 2-chloro-α-[[(4-ethynylphenyl)-amino]methylene]-β-oxobenzenepropionate] | 10 | 95
5 | CCOC(=O)C(=CNc1ccc(I)cc1)C(=O)c1ccccc1Cl [ethyl 2-chloro-α-[[(4-iodophenyl)-amino]methylene]-β-oxobenzenepropionate] | 20 | 86
6 | CCOC(=O)C(=CNc1ccc(F)cc1)C(=O)c1cccc2ccccc12 [ethyl α-[(4-fluorophenyl)amino]methylene]-β-oxo-1-naphthalenepropionate] | 200 | 81
7 | C#Cc1ccc(NC=C(C(=O)NCCC)C(=O)c2ccccc2C)cc1 [α-[[(4-ethynylphenyl)amino]methylene]-2-methyl-β-oxo-N-propyl-benzenepropanamide] | 20 | 95
